Results as given in PMC3403872, “Contrasting effects of linaclotide and lubiprostone on restitution of epithelial cell barrier properties and cellular homeostasis after exposure to cell stressors” (BMC Pharmacology, 2012).
Where no end group is shown, it is not given here.

Experiments:
T84 cells [1] = test system: T84 cells
T84 cells [2] = assay type: cell-based
[3] = parameters: method as in PMID 16603730; details: ref [19],[20]; cited from earlier work
pig jejunum [4] = test: short-circuit current (Cl− secretion) of pig jejunal mucosa in Ussing chambers; parameters: species or system Yorkshire crossbred pigs; details: 1 μM, n = 4
pig jejunum [5] = test: mucosal-to-serosal 3H-mannitol flux in pig jejunal mucosa; parameters: species or system Yorkshire crossbred pigs; details: n = 3
T84 cells [6] = test: plasma membrane potential of T84 cells (DiBAC4(3)); assay type: cell-based; details: different concentrations, p wrt 1 nM drug, n = 5
T84 cells [7] = test: FITC-LPS flux across T84 cells; assay type: cell-based; details: IFN-γ 100 ng/ml
[8] = test system: patients with IBS-C and CIC; details: human, in vivo; cited from earlier work
patients with IBS-C = details: ref [21]; cited from earlier work
porcine intestine = test system: porcine intestine; parameters: method as in PMID 17053162, PMID 18976652, PMID 18932279; details: porcine intestine models; ref [22]-[24]; cited from earlier work
pig jejunum [9] = test: TER of pig jejunal mucosa in Ussing chambers; parameters: species or system Yorkshire crossbred pigs
T84 cells [10] = test: 70,000 Da rhodamine-dextran flux across T84 cells; assay type: cell-based; details: 200 nM active linaclotide, 200 nM guanylin, 100 nM lubiprostone, 3 days, then dextran 24 h, n = 3
ClC-2 Cl- channels = test system: ClC-2 Cl- channels; parameters: method as in PMID 15213059, PMID 18511742; details: apical membrane of epithelial cells; ref [17],[18]; cited from earlier work
occludin = test: Western analysis of occludin in sucrose density gradient membrane fractions; parameters: species or system Yorkshire crossbred pigs; details: ischemic pig jejunum, n = 3 experiments
T84 cells [11] = test: mitochondrial membrane potential of T84 cells (JC-1); assay type: cell-based
T84 cells [12] = test: 3,000 Da FITC-dextran flux across T84 cells; assay type: cell-based; details: 200 nM active linaclotide, 200 nM guanylin, 100 nM lubiprostone, 3 days, then dextran 24 h, n = 3
T84 cells [13] = assay type: cell-based; remark: listed apart in the source
K+ channels = details: cited from earlier work
[14] = test system: guanylate cyclase-C (GC-C); details: cited from earlier work
rodent animal models = details: in vivo; cited from earlier work

Nc1nc2c(nc(Br)n2[C@@H]2O[C@@H]3COP(=O)(O)O[C@H]3[C@H]2O)c(=O)[nH]1 [8BrcGMP, 8-bromo cGMP]
effect on T84 TER, no stressor (T84 cells [1]): reduced T84 epithelial cell TER significantly
effects against IFN-γ (T84 cells [1]): effects similar to active linaclotide

CCCCC[C@H](O)/C=C/[C@H]1[C@H](O)CC(=O)[C@@H]1CCCCCCC(=O)O [PGE1, Prostaglandin E1]
effect on [Ca2+]i (T84 cells [2]): significantly increased

CCCCC(F)(F)[C@@]1(O)CC[C@H]2[C@@H](CC(=O)[C@@H]2CCCCCCC(=O)O)O1 [lubiprostone]
effect on T84 TER, no stressor (T84 cells [1]): slight increase in TER
effect of compound alone on measured T84 parameters (T84 cells [1]; T84 cells, no stressor, barrier function and mitochondrial membrane potential parameters together): no negative effects on the measured parameters
IFN-γ-counteracting effect on TER (T84 cells [1]; T84 cells, IFN-γ 100 ng/ml, 200 nM active linaclotide or 100 nM lubiprostone, n = 3, Δlin vs Δlubi p < 0.0005): ca. 27.3%
effect on TNF-α-induced TER change (T84 cells [1]; T84 cells, TNF-α 50 ng/ml, 200 nM active linaclotide or 100 nM lubiprostone): partially protected/repaired barrier function
intestinal secretion and bowel movements [3]: increasing intestinal salt and water secretion, promoting bowel movements
effect on Isc, control intestine (pig jejunum [4]): significant and similar increases in Isc
effect on 3H-mannitol flux, control intestine (pig jejunum [5]; control pig jejunum, 60 min flux period): neither compound had any effect
effect on 3H-mannitol flux after ischemia (pig jejunum [5]; ischemic pig jejunum (45 min ischemia)): decrease in ^3H-mannitol fluxes
effect on plasma membrane potential (T84 cells [6]): significantly hyperpolarized
IFN-γ-counteracting effect on FITC-LPS flux (T84 cells [7]; 200 nM active linaclotide or 100 nM lubiprostone, 3 days, then LPS 24 h, n = 3): ~89%
clinical effect on abdominal discomfort and pain [8]: ameliorates abdominal discomfort and pain
clinical efficacy of lubiprostone (symptoms) [8]: significantly improving symptoms associated with CIC and IBS-C
effect on visceral pain thresholds (patients with IBS-C): without influencing visceral pain thresholds
barrier repair after ischemia (porcine intestine): promotes repair of barrier properties which are disrupted by ischemia
ΔTER, control intestine (pig jejunum [9]; control pig jejunum, 1000 nM (1 μM), control ΔTER 2.1±1.8, n = 5, p < 0.01, mean ± S.E.): 26.3 ± 6.2 % mean basal
effect on TER after ischemia (pig jejunum [9]; ischemic pig jejunum (45 min ischemia), n = 5): large, significant increase in TER
effect on mucosal to serosal 70,000 Da rhodamine-dextran flux (T84 cells [10]): decreases of these fluxes
ClC-2 activation (ClC-2 Cl- channels): activates ClC-2 Cl^- channels
effect on occludin after ischemia (occludin): major return of occludin to detergent-insoluble fractions
effect on mitochondrial membrane potential, no stressor (T84 cells [11]; 200 nM active linaclotide, 100 nM lubiprostone, 3 days): no effect on the mitochondrial membrane potential
IFN-γ-counteracting effect on mitochondrial membrane potential (T84 cells [11]; IFN-γ 100 ng/ml, 200 nM active linaclotide or 100 nM lubiprostone, 3 days, n = 8): ~77.8%
effect on mucosal to serosal 3,000 Da FITC-dextran flux (T84 cells [12]): decreases of these fluxes
IFN-γ-counteracting effect on occludin/actin ratio (T84 cells [13]): ~43.8%

CCC(=O)C(CC(C)N(C)C)(c1ccccc1)c1ccccc1 (stereo not shown) [methadone]
effect of methadone on linaclotide's effect on TER after TNF-α (T84 cells [1]): no effect
effect of methadone on lubiprostone's protection/repair of TER after TNF-α (T84 cells [1]): inhibited completely

guanylin: well established GC-C activator, Sigma-Aldrich (PGTCEICAYAACTGC; ends and bridges not checked; cysteine pairing not given here; UniProt Q02747 101-115, looked up)
effect on T84 TER, no stressor (T84 cells [1]): reduced T84 epithelial cell TER significantly
effects against IFN-γ (T84 cells [1]): effects similar to active linaclotide
K+ channel activation (K+ channels): activate K^+ channels
GC-C activation [14]: activates guanylate cyclase-C (GC-C) leading to increased [cGMP]i
effect on mucosal to serosal 70,000 Da rhodamine-dextran flux (T84 cells [10]): increased mucosal to serosal fluxes
effect on mucosal to serosal 3,000 Da FITC-dextran flux (T84 cells [12]): increased mucosal to serosal fluxes

linaclotide
intestinal fluid secretion, transit and pain (rodent animal models): stimulated intestinal fluid secretion and transit time and reduced pain
GC-C activation [14]: activates guanylate cyclase-C (GC-C) leading to increased [cGMP]i
clinical efficacy of linaclotide [8]: improve bowel symptoms, transit time and abdominal discomfort or pain

uroguanylin: activates guanylate cyclase-C (NDDCELCVNVACTGCL; ends and bridges not checked; cysteine pairing not given here; UniProt Q16661 97-112, looked up)
K+ channel activation (K+ channels): activate K^+ channels
GC-C activation [14]: activates guanylate cyclase-C (GC-C) leading to increased [cGMP]i

B1: Interferon-γ (protein, UniProt P01579 24-161, looked up)
Interferon gamma: QDPYVKEAENLKKYFNAGHSDVADNGTLFLGILKNWKEESDRKIMQSQIVSFYFKLFKNFKDDQSIQKSVETIKEDMNVKFFNSNKKKRDDFEKLTNYSVTDLNVQRKAIHELIQVMAELSPAAKTGKRKRSQMLFRG
stressor effect on TER (T84 cells [1]): significantly reduced TER
stressor effect on mucosal to serosal FITC-LPS flux (T84 cells [7]; p < 0.0005): increased mucosal to serosal FITC-LPS flux
stressor effect on mitochondrial membrane potential (T84 cells [11]; IFN-γ 100 ng/ml, p < 0.0005): decreased the mitochondrial membrane potential
stressor effect on occludin/actin ratio (T84 cells [13]; T84 cells, IFN-γ 100 ng/ml, p < 0.0005): decreased the occludin/actin ratio
